Laboratory results taken from patent EP1117659B1, “SUBSTITUTED 3-CYANOQUINOLINES AS PROTEIN TYROSINE KINASES INHIBITORS” (Wyeth Holdings Corporation, priority 1998, dated 2000).
In brackets after ≈: the same amount, converted by molar mass. Several values for one entry are separate records, joined by “and”; a condition that tells them apart may be missing. Equal entries are not always repeated.

How the values were obtained:
3T3/c-erbb2 = test: Inhibition of Cancer Cell Growth as Measured by Cell Number (Sulforhodamine B); assay type: cell-based; settings: 48 hours exposure
Protocol: (§1) Human tumor cell lines were plated in 96-well plates (250 µl/well, 1-6 x 10^4 cells/ml) in RPMI 1640 medium, containing 5% FBS (Fetal Bovine Serum). […] After 48 hours exposure to test compounds, cells were fixed with trichloroacetic acid, and stained with Sulforhodamine B. After washing with trichloroacetic acid, bound dye was solubilized in 10 mM Tris base and optical density was determined using plate reader. Under conditions of the assay the optical density is proportional to the number of cells in the well. […] The test procedure is described in details by Philip Skehan et. al, J.Natl. Canc. Inst., 82, 1107-1112 (1990). […] Information about some of the cell lines used in these test procedures is available from the American Type Tissue Collection: Cell Lines and Hybridomas, 1994 Reference Guide, 8th Edition.

3T3 = test: as above; assay type: cell-based; settings: 48 hours exposure
Protocol: as §1

MDA-MB-435 = test: as above; assay type: cell-based, Human; settings: 48 hours exposure; for IC50: Homo sapiens, MDA-MB-435, 48 h
Protocol: as §1

SK-BR3 = test: as above; assay type: cell-based, Human; settings: 48 hours exposure; for IC50: Homo sapiens, SK-BR-3, 48 h
Protocol: as §1

SW620 = test: as above; assay type: cell-based, Human; settings: 48 hours exposure; for IC50: Homo sapiens, SW-620, 48 h
Protocol: as §1

A431 = test: as above; assay type: cell-based, Human; settings: 48 hours exposure; for IC50: Homo sapiens, A-431, 48 h
Protocol: as §1

[1] = molecular target: Recombinant human MEK 1 (MAPKK) / recombinant human ERK2 (MAPK) (Mek-Erk) (Homo sapiens, UniProt P28482+Q02750); test: Mitogen Activated Protein Kinase (MAPK) assay, two component coupled Mek-Erk test; assay type: biochemical; settings: read-out: Mek-Erk
A2780 = test: Inhibition of Cancer Cell Growth as Measured by Cell Number (Sulforhodamine B); assay type: cell-based; settings: Homo sapiens, 48 hours exposure
Protocol: as §1

DDP = test: as above; assay type: cell-based; settings: Homo sapiens; 48 hours exposure
Protocol: as §1

[2] = molecular target: T1, Kinase insert Domain containing Receptor (KDR: the catalytic domain of the VEGF receptor) (Homo sapiens, UniProt P35968); test: Inhibition of Kinase insert Domain containing Receptor (KDR), radioactive phosphorylation of Glu:Tyr copolymer; assay type: biochemical; settings: IC50, substrate phosphorylation
T1 construct: KDR: the catalytic domain of the VEGF receptor
T1 sequence (P35968 834-1162 limits assumed): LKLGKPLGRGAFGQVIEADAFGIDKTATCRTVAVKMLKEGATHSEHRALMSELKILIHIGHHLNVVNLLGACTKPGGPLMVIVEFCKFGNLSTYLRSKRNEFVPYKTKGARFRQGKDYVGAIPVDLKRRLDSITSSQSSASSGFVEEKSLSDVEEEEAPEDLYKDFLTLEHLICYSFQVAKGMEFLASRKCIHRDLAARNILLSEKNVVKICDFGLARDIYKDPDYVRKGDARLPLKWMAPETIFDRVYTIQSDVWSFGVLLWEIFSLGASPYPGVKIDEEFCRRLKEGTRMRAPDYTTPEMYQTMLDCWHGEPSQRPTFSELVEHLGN
Protocol: In this standard pharmacological test procedure, KDR protein is mixed, in the presence or absence of a inhibitor compound, with a substrate peptide to be phosphorylated (a copolymer of glutamic acid and tyrosine, E:Y :: 4:1) and other cofactors such as Mg^++ and sodium vanadate (a protein tyrosine phosphatase inhibitor) in an appropriate buffer to maintain pH (7.2). ATP and a radioactive tracer (either P^32- or P^33- labeled ATP) is then add to initiate phosphorylation. After incubation, the radioactive phosphate associated with the acid-insoluble fraction of the assay mixture is then quantified as reflection of substrate phosphorylation. […] Multiple entries for a given compound indication it was tested multiple times.

[3] = molecular target: Epithelial Cell Kinase (ECK) (Homo sapiens, UniProt P29317); test: Inhibition of Epithelial Cell Kinase (ECK), immobilized biotinylated peptide, HRP anti-phosphotyrosine readout; assay type: biochemical; settings: IC50, substrate phosphorylation
Sequence of Epithelial Cell Kinase (ECK) (P29317 24-976, species assumed): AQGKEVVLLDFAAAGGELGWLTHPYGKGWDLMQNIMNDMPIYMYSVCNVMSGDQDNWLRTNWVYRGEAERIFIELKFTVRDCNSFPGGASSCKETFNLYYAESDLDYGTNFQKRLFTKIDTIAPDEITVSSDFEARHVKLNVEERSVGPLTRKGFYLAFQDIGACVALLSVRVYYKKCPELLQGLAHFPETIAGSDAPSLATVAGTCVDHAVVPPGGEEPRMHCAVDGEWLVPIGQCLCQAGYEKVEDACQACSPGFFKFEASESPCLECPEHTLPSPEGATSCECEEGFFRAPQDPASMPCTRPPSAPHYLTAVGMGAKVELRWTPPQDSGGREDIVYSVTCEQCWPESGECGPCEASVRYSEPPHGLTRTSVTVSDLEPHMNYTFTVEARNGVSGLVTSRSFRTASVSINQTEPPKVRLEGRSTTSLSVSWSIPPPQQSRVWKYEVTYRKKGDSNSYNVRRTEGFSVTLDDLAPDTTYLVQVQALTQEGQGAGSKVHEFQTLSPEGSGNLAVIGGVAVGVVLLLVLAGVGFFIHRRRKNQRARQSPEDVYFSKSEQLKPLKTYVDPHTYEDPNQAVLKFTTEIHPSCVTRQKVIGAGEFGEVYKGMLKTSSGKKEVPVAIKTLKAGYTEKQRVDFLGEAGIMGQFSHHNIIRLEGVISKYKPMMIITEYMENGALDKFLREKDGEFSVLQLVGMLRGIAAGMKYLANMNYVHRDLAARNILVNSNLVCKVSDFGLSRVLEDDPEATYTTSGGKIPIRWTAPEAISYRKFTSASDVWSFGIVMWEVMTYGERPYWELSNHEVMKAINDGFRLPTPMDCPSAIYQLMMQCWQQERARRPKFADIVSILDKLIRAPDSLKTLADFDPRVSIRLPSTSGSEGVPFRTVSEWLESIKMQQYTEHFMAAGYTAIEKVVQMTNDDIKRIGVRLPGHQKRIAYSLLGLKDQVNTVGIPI
Protocol: In this standard pharmacological test procedure, a biotinylated peptide substrate is first immobilized on neutravidin-coated microtiter plates. The test drug, the Epithelial Cell Kinase (ECK), Mg^++, sodium vanadate (a protein tyrosine phosphatase inhibitor), and an appropriate buffer to maintain pH (7.2) are then added to the immobilized substrate-containing microtiter wells. ATP is then added to initiate phosphorylation. After incubation, the assay plates are washed with a suitable buffer leaving behind phosphorylated peptide which is exposed to horse radish peroxidase (HRP)-conjugated anti-phosphotyrosine monoclonal antibody. The antibody-treated plates are washed again and the HRP activity in individual wells is quantified as a reflection of degree of substrate phosphorylation. […] Multiple entries for a given compound indication it was tested multiple times.

IC50 [1]	IC50 (A2780) [mg/L]	IC50 (DDP) [mg/L]	IC50 [2] [µM]	IC50 (MDA-MB-435) [mg/L]	IC50 (SK-BR3) [mg/L]	IC50 (SW620) [mg/L]	IC50 (A431) [mg/L]	IC50 [3] [µM]	Compound	IC50 µg/mL 3T3/c-erbb2 (3T3/c-erbb2) [µg/mL]	IC50 µg/mL 3T3 (3T3) [µg/mL]	IC50 µg/mL MDA-MB-435 (MDA-MB-435) [µg/mL]	IC50 µg/mL SK-BR3 (SK-BR3) [µg/mL]	IC50 µg/mL SW620 (SW620) [µg/mL]	IC50 µg/mL A431 (A431) [µg/mL]	IC50 (3T3/c-erbb2) [mg/L]	IC50 (3T3; Mus musculus, NIH3T3) [mg/L]
	2.39 (≈ 6.39 µM)	2.69 (≈ 7.18 µM)		0.309 (≈ 0.825 µM)	0.767 (≈ 2.05 µM)	2.64 (≈ 7.04 µM)	1.61 (≈ 4.3 µM)	> 53.4	CCOc1cc2ncc(C#N)c(Nc3ccc4[nH]nnc4c3)c2cc1OCC [Example 103, 4-(1H-Benzotriazol-5-ylamino)-6,7-diethoxy-quinoline-3-carbonitrile]								
			> 80.3	0.352 (≈ 0.943 µM)	0.294 (≈ 0.787 µM)	< 0.0005	0.342 (≈ 0.916 µM)	> 2.68	CCOc1cc2ncc(C#N)c(Nc3ccc4c(c3)CCC4)c2cc1OCC [Example 108, 6,7-Diethoxy-4-(indan-5-ylamino)-quinoline-3-carbonitrile]							0.0198 (≈ 0.053 µM)	0.525 (≈ 1.41 µM)

Further lines, the compound ahead of its results:

Compound	IC50 [1]	IC50 (A2780) [mg/L]	IC50 (DDP) [mg/L]	IC50 [2] [µM]	IC50 (MDA-MB-435) [mg/L]	IC50 (SK-BR3) [mg/L]	IC50 (SW620) [mg/L]	IC50 (A431) [mg/L]	IC50 [3] [µM]	IC50 µg/mL 3T3/c-erbb2 (3T3/c-erbb2) [µg/mL]	IC50 µg/mL 3T3 (3T3) [µg/mL]	IC50 µg/mL MDA-MB-435 (MDA-MB-435) [µg/mL]	IC50 µg/mL SK-BR3 (SK-BR3) [µg/mL]	IC50 µg/mL SW620 (SW620) [µg/mL]	IC50 µg/mL A431 (A431) [µg/mL]	IC50 (3T3/c-erbb2) [mg/L]	IC50 (3T3; Mus musculus, NIH3T3) [mg/L]
6,7-Diethoxy-4-(1-oxo-indan-5-ylamino)-quinoline-3-carbonitrile [Example 110]	> 100 µM and 50 µM									0.0311	0.0923	0.0280	0.0281	0.0181	0.0244		
CCOc1cc2ncc(C#N)c(Nc3ccc4c(C)cc(=O)oc4c3)c2cc1OCC [Example 100, 6,7-Diethoxy-4-(4-methyl-2-oxo-2H-chromen-7-ylamino)-quinoline-3-carbonitrile]	3.5 µM	0.27 (≈ 0.65 µM)	0.249 (≈ 0.599 µM)	> 72.3	0.067 (≈ 0.161 µM)	0.429 (≈ 1.03 µM)	0.325 (≈ 0.782 µM)	0.369 (≈ 0.888 µM)	> 48.2								
COc1cc2ncc(C#N)c(Nc3ccc4cn[nH]c4c3)c2cc1OC [Example 102, 6,7-Dimethoxy-4-(1H-indazol-6-ylamino)-quinoline-3-carbonitrile]		1.49 (≈ 4.32 µM)	3.05 (≈ 8.84 µM)	14.1	0.49 (≈ 1.42 µM)	0.78 (≈ 2.26 µM)	2.18 (≈ 6.31 µM)	1.31 (≈ 3.79 µM)	> 56.4								
CCOc1cc2ncc(C#N)c(Nc3ccc4c(c3)C(=O)NC4=O)c2cc1OCC [Example 104, 4-(1,3-Dioxo-2,3-dihydro-1H-isoindol-5-ylamino)-6,7-diethoxy-quinoline-3-carbonitrile]	35 µM	0.044 (≈ 0.109 µM)	0.107 (≈ 0.266 µM)	> 74.6	0.021 (≈ 0.0522 µM)	0.034 (≈ 0.0845 µM)	0.207 (≈ 0.514 µM)	0.049 (≈ 0.122 µM)	> 49.7								
